Measurements published in patent US20260335294A1, “TREATING CONGENITAL DISORDERS OF GLYCOSYLATION” (Mayo Foundation for Medical Education and Research, priority 2022, published 2026).

How the values were obtained:
[1] = system: PMM2-CDG patients; test: Goal attainment scale (GAS) in patients on epalrestat; type: in vivo, human
Procedure: Two patients were started on epalrestat on single patient investigational new drug (IND) (P5 IRB: 19-010017; IND #145262; P6 Protocol PMM2-CDG-001/A). Epalrestat was initiated on the parents' own initiative in the third patient (P7). Two patients were in their second year of epalrestat treatment, while the third, was in the 3rd year of treatment. Physical, neurological, and biochemical examinations were performed in 3 PMM2-CDG patients at baseline, and at every three months after the start of the epalrestat treatment. Patients underwent NPCRS phenotype severity assessment and biological sampling at every visit. Epalrestat (Ono Pharmaceuticals, Osaka, Japan) was taken orally 3 times per day (TID) before meals in a divided dose, with dosage escalation throughout the treatment. The pharmacological profile of epalrestat was as described elsewhere (Ligezka et al, Ann. Neurol., 90(6):887-900 (2021)). The starting dosage in P5 and P6 was 0.8 mg/kg/day, while P7 was started on 0.5 mg/kg/day due to their young age. P7 dosage was increased to 0.8 mg/day after a month, once safety was established. Blood and urine samples were collected routinely. Urine polyols, carbohydrate deficient transferrin (CDT), anti-thrombin III (ATIII), liver enzymes (ALT, AST), and complete blood count (CBC) were performed. Modified Brief Ataxia Rating Scale was used to assess ataxia in the 2 patients (P5, P6; P7 was not eligible for the test due to age). The modified BARS scale included Archimedes spiral test, but not the abnormalities of the ocular pursuit system and the scale range was 0-54. Goal attainment scale (GAS) was administered as described per study protocol (ClinicalTrials.gov Identifier: NCT04199000). Quantification of goal attainment levels is done on a 5-point scale ranging from −2 to +2, with 0 indicating the expected level of goal attainment. Three individual goals were established by each patient (parent) at baseline and the progress was annually assessed. Goals included: walking without assistance (Goal #1 P5, P6), communicating with strangers (Goal #2 P5, P6), independent toilet training (Goal #3 P5), to be able to have a healthy and independent life (Goal #3 P6), to be able to equally play with peers (Goal #1 P7), normalization of laboratory results (liver enzymes) (Goal #2 P7), and improved balance to stand and walk (Goal #3 P7).

[2] = system: pmm2 mutant zebrafish; test: Zebrabox motility assay; type: in vivo
Procedure: Zebrabox Motility Assay Progeny of a pmm2^sa1050/+ (pmm2^m/+) mating were collected and raised in the light following standard protocols. […] Embryos were also fed a small number of rotifers daily once behavioral readings were completed. Locomotor activity (swim paths, speeds) was monitored for ten-minute intervals from 6-10 dpf using the Zebrabox System (ViewPoint Inc., Toronto, Canada). Data was analyzed and graphed using GraphPad Prism.
Then, both wt and pmm2 mutant zebrafish were treated with 20 µM daily epalrestat, which increased the distance swam and the number of swim events initiated in the pmm2 mutant zebrafish (FIG. 5 C,D). The improvement was most significant at 6 dpf and 7 dpf (FIG. 5 C,D).

[3] = 20 μM daily (printed 20 M), pmm2 mutant

CC(/C=C1\SC(=S)N(CC(=O)O)C1=O)=C\c1ccccc1 [epalrestat]
Goal attainment scale, Goal 2 (scale −2 to +2) ([1]; P5, 12 months, 1.5 mg/kg day, communicating with strangers, baseline −2): −1
Goal attainment scale, Goal 3 (scale −2 to +2) ([1]; P5, 12 months, 1.5 mg/kg day, independent toilet training, baseline −2): −2
Goal attainment scale, Goal 1 (scale −2 to +2) ([1]; P5, 12 months, 1.5 mg/kg day, walking without assistance, baseline −2): −1
Goal attainment scale, Goal 2 (scale −2 to +2) ([1]; P5, 24 months, 2 mg/kg day, communicating with strangers, baseline −2): −1
Goal attainment scale, Goal 3 (scale −2 to +2) ([1]; P5, 24 months, 2 mg/kg day, independent toilet training, baseline −2): −2
Goal attainment scale, Goal 1 (scale −2 to +2) ([1]; P5, 24 months, 2 mg/kg day, walking without assistance, baseline −2): −1
Goal attainment scale, Goal 2 (scale −2 to +2) ([1]; P6, 12 months, 1.5 mg/kg day, communicating with strangers, baseline −1): −1
Goal attainment scale, Goal 3 (scale −2 to +2) ([1]; P6, 12 months, 1.5 mg/kg day, healthy and independent life, baseline −2): −2
Goal attainment scale, Goal 1 (scale −2 to +2) ([1]; P6, 12 months, 1.5 mg/kg day, walking without assistance, baseline −2): −1
Goal attainment scale, Goal 1 (scale −2 to +2) ([1]; P7, 12 months, 1.5 mg/kg day, equally play with peers, baseline −2): −2
Goal attainment scale, Goal 3 (scale −2 to +2) ([1]; P7, 12 months, 1.5 mg/kg day, improved balance to stand and walk, baseline −2): −1
Goal attainment scale, Goal 2 (scale −2 to +2) ([1]; P7, 12 months, 1.5 mg/kg day, normalization of laboratory results (liver enzymes), baseline −2): −1
clinical improvement and quality of life (GAS, self-reported) ([1]; all patients, words): all patients self-reported clinical improvement and quality of life improvement
swimming behavior ([2]; 10 μM daily, wt and pmm2 mutant): no improvement in swimming behavior
distance swam [2, 3]: increased
number of swim events initiated [2, 3]: significantly increased
swimming distance at 6 dpf and 7 dpf ([2]; 20 μM daily, pmm2 zebrafish, wt n=42-46, pmm2 n=22-51): significantly increased
